Measurements published in patent US7592345B2, “Piperazine and [1,4]diazepan derivatives as NK antagonists” (Hoffmann-La Roche Inc., priority 2007, dated 2009).

What follows are compounds tested against T1, recombinant human NK3 receptor (Homo sapiens, UniProt P29371) (assay: [3H]SR142801 competition binding assay). Conditions: [3H]SR142801, membranes from HEK293 cells transiently expressing recombinant human NK3 receptor; read-out: hNK3 Ki.
T1 construct: expressed in transfected cells; host or cells: HEK293 cells (transient expression), membranes
T1 sequence (P29371 1-465): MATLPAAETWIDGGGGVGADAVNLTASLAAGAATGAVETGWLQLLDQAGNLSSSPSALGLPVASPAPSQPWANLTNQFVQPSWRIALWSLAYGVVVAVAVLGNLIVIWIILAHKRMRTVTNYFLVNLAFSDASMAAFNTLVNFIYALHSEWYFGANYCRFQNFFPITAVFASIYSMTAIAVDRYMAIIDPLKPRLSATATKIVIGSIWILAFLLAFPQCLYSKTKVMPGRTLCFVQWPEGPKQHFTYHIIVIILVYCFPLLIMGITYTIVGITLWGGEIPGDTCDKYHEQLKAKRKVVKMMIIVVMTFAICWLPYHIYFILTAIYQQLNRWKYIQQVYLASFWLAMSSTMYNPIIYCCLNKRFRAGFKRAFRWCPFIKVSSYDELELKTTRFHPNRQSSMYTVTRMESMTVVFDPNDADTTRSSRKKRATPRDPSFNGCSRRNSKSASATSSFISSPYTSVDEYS
Method in brief: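 Membranes from HEK293 cells transiently expressing human NK3 were incubated 75 min at RT with [3H]SR142801 at its KD and inhibitor (0.0003-10 μM) in Tris-HCl pH 7.4/MnCl2/phosphoramidon/BSA. Nonspecific binding used 10 μM SB222200. Ki from Hill-fitted IC50 via Cheng-Prusoff, duplicate determinations.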

In order of rising Ki:
1. CN(Cc1ccc(Cl)c(Cl)c1)C(=O)C(C)(CCN1CCCN(S(C)(=O)=O)CC1)c1ccc(Cl)c(Cl)c1 (stereo not drawn) [Example 113, N-(3,4-Dichloro-benzyl)-2-(3,4-dichloro-phenyl)-4-(4-methanesulfonyl-[1,4]diazepan-1-yl)-2,N-dimethyl-butyramide]  0.0101 µM
2. CC(CCN1CCN2C(CCS2(=O)=O)C1)(C(=O)N[C@@H](CO)c1ccc(Cl)cc1)c1ccc(Cl)c(Cl)c1 (stereo partly drawn) [Example 136, N-[(R)-1-(4-Chloro-phenyl)-2-hydroxy-ethyl]-2-(3,4-dichloro-phenyl)-4-(1,1-dioxo-hexahydro-1λ^6-thia-5,7a-diaza-inden-5-yl)-2-methyl-butyramide]  0.0154 µM
3. CC(NC(=O)C(C)(CCN1CCN(S(C)(=O)=O)[C@H](C)C1)c1ccc(Cl)c(Cl)c1)c1ccc(Cl)cc1 (stereo partly drawn) [Example 47, N-[1-(4-Chloro-phenyl)-ethyl]-2-(3,4-dichloro-phenyl)-4-((R)-4-methanesulfonyl-3-methyl-piperazin-1-yl)-2-methyl-butyramide]  0.0159 µM
4. CC(CCN1CCCN(S(C)(=O)=O)CC1)(C(=O)NCc1ccc(Cl)c(Cl)c1)c1ccc(Cl)c(Cl)c1 (stereo not drawn) [Example 114, N-(3,4-Dichloro-benzyl)-2-(3,4-dichloro-phenyl)-4-(4-methanesulfonyl-[1,4]diazepan-1-yl)-2-methyl-butyramide]  0.0399 µM
5. CC(CCN1CCCN(S(C)(=O)=O)CC1)(C(=O)NCc1ccc(C(F)(F)F)cc1)c1ccc(Cl)c(Cl)c1 (stereo not drawn) [Example 117, 2-(3,4-Dichloro-phenyl)-4-(4-methanesulfonyl-[1,4]diazepan-1-yl)-2-methyl-N-(4-trifluoromethyl-benzyl)-butyramide]  0.0496 µM
6. CC(CCN1CCCN(S(C)(=O)=O)CC1)(C(=O)NCc1ccc(Cl)c(F)c1)c1ccc(Cl)c(Cl)c1 (stereo not drawn) [Example 98, N-(4-Chloro-3-fluoro-benzyl)-2-(3,4-dichloro-phenyl)-4-(4-methanesulfonyl-[1,4]diazepan-1-yl)-2-methyl-butyramide]  0.066 µM
7. CC(CCN1CCN(S(C)(=O)=O)CC1)(C(=O)NCc1ccc(C(F)(F)F)c(F)c1)c1ccc(Cl)c(Cl)c1 (stereo not drawn) [Example 20, 2-(3,4-Dichloro-phenyl)-N-(3-fluoro-4-trifluoromethyl-benzyl)-4-(4-methanesulfonyl-piperazin-1-yl)-2-methyl-butyramide]  0.0671 µM
8. COc1cc(CN(C)C(=O)C(C)(CCN2CCCN(S(C)(=O)=O)CC2)c2ccc(Cl)c(Cl)c2)ccc1OC(F)F (stereo not drawn) [Example 108, 2-(3,4-Dichloro-phenyl)-N-(4-difluoromethoxy-3-methoxy-benzyl)-4-(4-methanesulfonyl-[1,4]diazepan-1-yl)-2,N-dimethyl-butyramide]  0.0895 µM
9. CN(Cc1ccc(-c2ccncc2)cc1)C(=O)C(C)(CCN1CCCN(S(C)(=O)=O)CC1)c1ccc(Cl)c(Cl)c1 (stereo not drawn) [Example 123, 2-(3,4-Dichloro-phenyl)-4-(4-methanesulfonyl-[1,4]diazepan-1-yl)-2,N-dimethyl-N-(4-pyridin-4-yl-benzyl)-butyramide]  0.0934 µM
10. Cc1ccc(CN(C)C(=O)C(C)(CCN2CCN(S(C)(=O)=O)[C@@H](C)C2)c2ccc(Cl)c(Cl)c2)cc1 (stereo partly drawn) [Example 67, 2-(3,4-Dichloro-phenyl)-4-((S)-4-methanesulfonyl-3-methyl-piperazin-1-yl)-2,N-dimethyl-N-(4-methyl-benzyl)-butyramide]  0.0992 µM
11. C[C@@H]1CN(CCC(C)(C(=O)N(C)Cc2cccc(Cl)c2)c2ccc(Cl)c(Cl)c2)CCN1S(C)(=O)=O (stereo partly drawn) [Example 59, N-(3-Chloro-benzyl)-2-(3,4-dichloro-phenyl)-4-((R)-4-methanesulfonyl-3-methyl-piperazin-1-yl)-2,N-dimethyl-butyramide]  0.103 µM
12. C[C@H]1CN(CCC(C)(C(=O)N(C)Cc2cccc(Cl)c2)c2ccc(Cl)c(Cl)c2)CCN1S(C)(=O)=O (stereo partly drawn) [Example 88, N-(3-Chloro-benzyl)-2-(3,4-dichloro-phenyl)-4-((S)-4-methanesulfonyl-3-methyl-piperazin-1-yl)-2,N-dimethyl-butyramide]  0.107 µM
13. COc1cccc(CN(C)C(=O)C(C)(CCN2CCCN(S(C)(=O)=O)CC2)c2ccc(Cl)c(Cl)c2)c1 (stereo not drawn) [Example 120, 2-(3,4-Dichloro-phenyl)-4-(4-methanesulfonyl-[1,4]diazepan-1-yl)-N-(3-methoxy-benzyl)-2,N-dimethyl-butyramide]  0.108 µM
14. COc1ccc(CN(C)C(=O)C(C)(CCN2CCN(S(C)(=O)=O)[C@H](C)C2)c2ccc(Cl)c(Cl)c2)cc1F (stereo partly drawn) [Example 31, 2-(3,4-Dichloro-phenyl)-N-(3-fluoro-4-methoxy-benzyl)-4-((R)-4-methanesulfonyl-3-methyl-piperazin-1-yl)-2,N-dimethyl-butyramide]  0.109 µM
15. C[C@H]1CN(CC[C@@](C)(C(=O)NCc2ccc(Cl)c(Cl)c2)c2ccc(Cl)c(Cl)c2)CCN1S(C)(=O)=O (single isomer, unassigned) [Example 94, (R or S)—N-(3,4-Dichloro-benzyl)-2-(3,4-dichloro-phenyl)-4-((R)-4-methanesulfonyl-3-methyl-piperazin-1-yl)-2-methyl-butyramide]  0.112 µM
16. CC(CCN1CCCN(S(C)(=O)=O)CC1)(C(=O)NCc1ccc(OC(F)(F)F)cc1)c1ccc(Cl)c(Cl)c1 (stereo not drawn) [Example 99, 2-(3,4-Dichloro-phenyl)-4-(4-methanesulfonyl-[1,4]diazepan-1-yl)-2-methyl-N-(4-trifluoromethoxy-benzyl)-butyramide]  0.128 µM
17. C[C@@H]1CN(CCC(C)(C(=O)N(C)Cc2cccc(F)c2)c2ccc(Cl)c(Cl)c2)CCN1S(C)(=O)=O (stereo partly drawn) [Example 60, 2-(3,4-Dichloro-phenyl)-N-(3-fluoro-benzyl)-4-((R)-4-methanesulfonyl-3-methyl-piperazin-1-yl)-2,N-dimethyl-butyramide]  0.13 µM
18. CC(NC(=O)C(C)(CCN1CCN(S(C)(=O)=O)CC1)c1ccc(Cl)c(Cl)c1)c1ccc(Cl)cc1 (stereo not drawn) [Example 14, N-[1-(4-Chloro-phenyl)-ethyl]-2-(3,4-dichloro-phenyl)-4-(4-methanesulfonyl-piperazin-1-yl)-2-methyl-butyramide]  0.171 µM
19. CC(CCN1CCN(S(C)(=O)=O)CC1)(C(=O)NC(c1ccc(F)cc1)C(F)(F)F)c1ccc(Cl)c(Cl)c1 (stereo not drawn) [Example 135, 2-(3,4-Dichloro-phenyl)-4-(4-methanesulfonyl-piperazin-1-yl)-2-methyl-N-[2,2,2-trifluoro-1-(4-fluoro-phenyl)-ethyl]-butyramide]  0.196 µM
20. CN(Cc1ccc(-c2ccncc2)cc1)C(=O)C(C)(CCN1CCN(S(C)(=O)=O)CC1)c1ccc(Cl)c(Cl)c1 (stereo not drawn) [Example 23, 2-(3,4-Dichloro-phenyl)-4-(4-methanesulfonyl-piperazin-1-yl)-2,N-dimethyl-N-(4-pyridin-4-yl-benzyl)-butyramide]  0.201 µM
21. CC(CCN1CCN(S(C)(=O)=O)CC1)(C(=O)NCc1cccc(C(F)(F)F)c1)c1ccc(Cl)c(Cl)c1 (stereo not drawn) [Example 8, 2-(3,4-Dichloro-phenyl)-4-(4-methanesulfonyl-piperazin-1-yl)-2-methyl-N-(3-trifluoromethyl-benzyl)-butyramide]  0.288 µM
22. C[C@H]1CN(CCC(C)(C(=O)NCc2cc(C(F)(F)F)ccc2F)c2ccc(Cl)c(Cl)c2)CCN1S(C)(=O)=O (stereo partly drawn) [Example 76, 2-(3,4-Dichloro-phenyl)-N-(2-fluoro-5-trifluoromethyl-benzyl)-4-((S)-4-methanesulfonyl-3-methyl-piperazin-1-yl)-2-methyl-butyramide]  0.311 µM
23. CC(CCN1CCN(S(C)(=O)=O)CC1)(C(=O)N[C@@H](CO)c1ccccc1)c1ccc(Cl)c(Cl)c1 (single isomer, unassigned) [Example 129, (S or R)-2-(3,4-Dichloro-phenyl)-N-((R)-2-hydroxy-1-phenyl-ethyl)-4-(4-methanesulfonyl-piperazin-1-yl)-2-methyl-butyramide]  0.334 µM
24. CN(Cc1ccccc1)C(=O)C(CCN1CCN(S(C)(=O)=O)CC1)c1ccc(Cl)c(Cl)c1 (stereo not drawn) [Example 4, N-Benzyl-2-(3,4-dichloro-phenyl)-4-(4-methanesulfonyl-piperazin-1-yl)-N-methyl-butyramide]  0.355 µM
25. CC(CCN1CCN(S(C)(=O)=O)CC1)(C(=O)NCc1cccc(OC(F)F)c1)c1ccc(Cl)c(Cl)c1 (stereo not drawn) [Example 11, 2-(3,4-Dichloro-phenyl)-N-(3-difluoromethoxy-benzyl)-4-(4-methanesulfonyl-piperazin-1-yl)-2-methyl-butyramide]  0.417 µM
26. C[C@@H]1CN(CCC(C)(C(=O)NCc2ccc(N(C)C)cc2)c2ccc(Cl)c(Cl)c2)CCN1S(C)(=O)=O (stereo partly drawn) [Example 37, 2-(3,4-Dichloro-phenyl)-N-(4-dimethylamino-benzyl)-4-((R)-4-methanesulfonyl-3-methyl-piperazin-1-yl)-2-methyl-butyramide]  0.485 µM
27. C[C@H]1CN(CCC(C)(C(=O)NCc2ccc(N(C)C)cc2)c2ccc(Cl)c(Cl)c2)CCN1S(C)(=O)=O (stereo partly drawn) [Example 68, 2-(3,4-Dichloro-phenyl)-N-(4-dimethylamino-benzyl)-4-((S)-4-methanesulfonyl-3-methyl-piperazin-1-yl)-2-methyl-butyramide]  0.734 µM
